Assay results from patent publication US6979747B2, “Antioxidants, preparation processes and their uses” (Centre National de la Recherche Scientifique (CNRS), priority 1999, dated 2005).
Where two headings read alike, the source gives them in different places.

Experiments:
Assay type in all cases: cell-based
HIV-1/Ba-L [1] = test: Production of p25 protein in supernatants of MDMs infected with HIV-1/Ba-L (ELISA); conditions: infected MDM cultures
Procedure: The assaying of the p25 protein is carried out using the ELISA kit from DuPont de Nemours. 200 μl of the culture supernatant to be tested are placed in a well of a microtitration plate. The addition of 20 μl of lysis buffer releases the viral proteins in the medium. The released antigen attaches to a mouse anti-p25 monoclonal antibody immobilized at the bottom of the wells. After incubating for 2 h at 37° C., 3 washing operations using 5 ml of washing buffer are carried out and then 100 μl of a biotinylated polyclonal antibody which reacts with the immobilized antigen are incubated for 1 h at 37° C. The series of 3 washing operations in the same buffer and with the same volume is again carried out before the addition over 15 min at 37° C. of 100 μl of Raifort-streptavidin peroxidase conjugate which will make it possible to amplify the colorimetric reaction. […] After incubating for 30 min at ambient temperature, the reaction is halted by the addition of 100 μl of 4N sulfuric acid. The OD of the coloring thus obtained is read at […]. This absorbence is directly proportional to the amount of attached antigen. The linear relationship relating the O.D. to the p25 concentration is established by virtue of a standard range produced from a recombinant p25 solution.

HIV-1/Ba-L [2] = test: Antiviral activity in MDM cultures infected with HIV-1/Ba-L (RT activity in culture supernatants); conditions: for viral replication (in words): treatment of MDMs 7 days after infection
Procedure: A million monocytes in 1 ml of culture medium A are distributed in each well of a 48 well plate (Becton-Dickinson). The monocytes are left to differentiate into macrophages for 7 days. The macrophages thus differentiated are maintained in culture in medium A.
(§1) The MDMs were infected with the reference isolate with macrophage tropism, HIV-1/Ba-L. The PBMCs and the PBLs were infected with the reference isolate with lymphocyte tropism HIV-1 LAI. The viral stock were formed by amplifying these strains in vitro using umbilical blood mononucleated cells (UBM(s) preactivated with 1 μg/ml of PHA-P and cultured in medium A supplemented by 20 IU/ml of IL-2. In order to remove the soluble factors, such as cytokines, the culture supernatants were ultracentrifuged at 360 000 g for 5 min, and the pellets were resuspended in RPMI 1640. The viral stocks thus formed were subsequently titred using PBMCs activated with PHA-P. The TCID50s (50% Tissue Culture Infectious Dose) were calculated using the Kärber formula.
A million MDMs were infected with 10 000 TCID50s of the HIV-1/Ba-L strain. This amount of virus corresponds to a multiplicity of infection (m.o.i.) equal to 0.01. The excess of virus is removed 24 h after by washing with cells using RPMI 1640. The PBLs and the PBMCs were infected with 10 000 TCID50s of the HIV-1 LAI strain (moi=0.01). The cells were washed at the end of the second day of infection.
The viral replication is measured by assaying the RT activity in the culture supernatants according to the technique described by F. Rey et al. (Biochem. Biophys. Res. Comm., 1984, 121, 126-133). The radioactivity incorporated during the extension of the complementary strand of a poly-rA synthetic matrix in the presence of an oligo-dT12-18 primer and of a radiolabeled substrate, [^3H-methyl]thymidine-5′-triphosphate ([^3H]TPP), makes it possible to assay the enzymatic activity of RT. 400 μl of supernatant are ultracentrifuged at 360 000 g for 5 min. The RT is released by lysis of the viral pellet in 20 μl of NTE-Triton (100 mM NaCl, 10 mM Tris, 1 mM EDTA, 0.1% Triton X-100). These 20 μl are subsequently incubated with 40 μl of the following reaction mixture: 62.5 mM Tris, pH 7.8; 25 mM KCl; 6.25 mM MgCl2; 1.25 mM dithiothreitol (DTT); 2.5×10^−3 ODU oligo-dT12-18 and poly-rA, 5.55×10^−3 TBq {^3H]TTP. After one hour at 37° C., the enzymatic reaction is halted and the newly synthesized strands are precipitated for 20 min at 4° C. by the addition of 1 ml of sodium pyrophosphate (NaPP), of 50 μl of yeast DNA (0.1 mg/ml in 5% trichluoroacetic acid (TCA)), and of 4 ml of 20% TCA. The mixture is filtered using a cellulose acetate membrane (Millipore) which retains the radiolabeled poly-dT chains. The filter is washed using 20 ml of 5% TCA and the residual water is removed by addition of 25 μl of 70% ethanol. The filter is dried in an oven for 10 minutes at 80° C. and is then introduced into vials containing 8 ml of liquid scintillant. The β radioactivity is quantified by means of a scintillation counter (Packard Bell). The results are expressed in pM of [^3H]-TMP incorporated/h/ml of supernatant or, more simply, in cpm/h/ml.
The 50% effective doses (ED50) are calculated from the cumulative RT activities using the software “Dose-effects analysis with microcomputers” developed by J. Chou & T. C. Chou.

HIV-1/Ba-L [3] = test: as above; conditions: Human immunodeficiency virus 1, BAL; MDMs infected with 1 000 TCID50 (m.o.i. 0.001); read-out: 50% effective dose (ED)
HIV-1 LAI = test: Antiviral activity in quiescent or PHA-P activated PBLs infected with HIV-1 LAI; conditions: quiescent PBLs or PBLs activated by PHA-P
Procedure: For some experiments, the PBMCs and the PBLs are activated for 48 h with 1 μg/ml of a mitogen, PHA-P (Difco Laboratories). The PBMCs and the PBLs are cultured in medium A (quiescent) or B (activated). The cells are cultured at 37° C. in an atmosphere saturated with moisture under 5% of CO2. The culture supernatants are removed and the culture media are replaced every three or four days. At each renewal of the culture media, the cell viability is evaluated by coloring with trypan blue or by microscopic observation.
as §1
A million MDMs were infected with 10 000 TCID50s of the HIV-1/Ba-L strain. This amount of virus corresponds to a multiplicity of infection (m.o.i.) equal to 0.01. The excess of virus is removed 24 h after by washing with cells using RPMI 1640. […]
The viral replication is measured by assaying the RT activity in the culture supernatants according to the technique described by F. Rey et al. (Biochem. Biophys. Res. Comm., 1984, 121, 126-133). The radioactivity incorporated during the extension of the complementary strand of a poly-rA synthetic matrix in the presence of an oligo-dT12-18 primer and of a radiolabeled substrate, [^3H-methyl]thymidine-5′-triphosphate ([^3H]TPP), makes it possible to assay the enzymatic activity of RT. […] The β radioactivity is quantified by means of a scintillation counter (Packard Bell). […]

[4] = ratio of inhibiting concentrations, MDMs, HIV-1/Ba-L

## CC(=O)N[C@@H](CS)C(=O)NCCSC(C)=O [I-152, N-(N-acetyl-L-cysteinyl)-S-acetylcysteamine]
HIV-1/Ba-L [1]
  production of the p25 protein (in words): inhibition of the production of the p25 protein
HIV-1/Ba-L [2]; Human immunodeficiency virus 1, BAL, MDMs infected with 10 000 TCID50s HIV-1/Ba-L (m.o.i. 0.01), read-out: inhibiting concentration (50% effective dose)
  EC50: 50 µM
HIV-1/Ba-L [2]; MDMs infected with HIV-1/Ba-L, compounds dissolved in medium A
  antiviral activity (in words): strong antiviral activity superior to that of NAC or of MEA
HIV-1/Ba-L [2]; [4]
  times more effective than MEA: 6 times
  times more effective than NAC: 188 times
HIV-1/Ba-L [2]; second series, compounds dissolved in DMSO then diluted, MDMs, HIV-1/Ba-L
  antiviral activity (in words): the most effective in inhibiting viral replication
HIV-1/Ba-L [2]; 250 μM
  viral replication (in words): ineffective
HIV-1/Ba-L [2]; 500 μM
  viral replication (in words): viral replication is extinguished
HIV-1/Ba-L [3]
  EC50: 3 µM
HIV-1 LAI
  antiviral activity (in words): inhibits viral replication
